Holding throughout (experiment): NCI anticancer screen, dose series, 48 h
Experiment [1] deals with RXF 631.
Experiment [2] relates to SNB-78.
The subject of experiment [3] is XF498.
The subject of experiment [4] is M19-MEL.
Experiment [5] has as its system DMS-114.
Experiment [6] relates to LXFL 529.
Experiment [7] relates to DLD-1.
For experiment [8], the system named is KM-20L2.
Experiment [9] has as its system DMS-273.

These results are taken from ChEMBL document CHEMBL1201862, “PubChem BioAssay data set” (2004).

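All cell lines were grown in 96-well plates and treated with compound for 48 hours. Here, GI50 denotes the concentration required for 50% inhibition of growth.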 Activity calls are given as the source filed them. No stated cut-off is given here; in the data, active = GI50 up to about 1.1 µM and inactive = higher.

As to `CC(=O)OC(C)(C)/C=C/C(=O)[C@](C)(O)[C@H]1[C@H](O)C[C@@]2(C)[C@@H]3CC=C4[C@@H](C[C@H](O)[C@H](O)C4(C)C)[C@]3(C)C(=O)C[C@]12C`, the GI50 in [1] is 0.679 µM (active); in [2] it was 0.453 µM (active); in experiment [3] it was 0.422 µM (active); in experiment [4], 0.515 µM (active); in experiment [5], 0.324 µM (active); in [6] it was 0.347 µM (active). Also, the GI50 in experiment [7] was 0.274 µM (active); in [8] it was 0.513 µM (active); in experiment [9] it was 0.421 µM (active).
As for `C/C(O)=C1\CC2CN3CCc4c([nH]c5ccccc45)C3CC2CC1=O` (stereo not drawn), the GI50 is 32.9 µM (inactive) in experiment [2]; 32 µM (inactive) in [3]; 46.2 µM (inactive) in experiment [5]; 34.4 µM (inactive) in experiment [6]; 40.6 µM (inactive) in experiment [7]; 92 µM (inactive) in experiment [8]. For the same compound, in experiment [9], the GI50 was 57.4 µM (inactive).
Regarding `CC(C)(C)N/N=C(\C(=O)Nc1nnc(S)[nH]1)C1C(=O)Nc2ccccc2[S+]1[O-]` (stereo not drawn), the GI50 in experiment [1], in [2], in experiment [3], in experiment [4], in [5] and in experiment [6] was > 100 µM (inactive) in each case. Moreover, the GI50 in [7], in experiment [8] and in [9] was > 100 µM (inactive) throughout.
In the case of `N#C/N=C1\NC(Cc2ccccc2)C(=O)N1CCc1c[nH]c2ccccc12` (stereo not drawn), the GI50 in [2] was 21.8 µM (inactive); in [3], 27.4 µM (inactive); in experiment [4] it was 30.1 µM (inactive); in experiment [5], 29.3 µM (inactive); in experiment [6] it was 30.1 µM (inactive); in experiment [7] it was 33.9 µM (inactive). In addition, in experiment [9], the GI50 was 27.7 µM (inactive).
For `CCOC(=O)c1nn2c(nc1=O)sc1ccc3ccccc3c12`, the GI50 in [2], in [4], in experiment [5], in [6], in [7] and in experiment [8] was > 100 µM (inactive) each time. In addition, in experiment [9], the GI50 is > 100 µM (inactive).
With `O=C(NC(=O)c1cc2cc(Br)cc(Br)c2oc1=O)Oc1ccccc1`, the GI50 was > 100 µM (inactive) in [2]; 37.4 µM (inactive) in experiment [3]; > 100 µM (inactive) in [4]; 65.2 µM (inactive) in experiment [5]; > 100 µM (inactive) in experiment [6]; > 100 µM (inactive) in experiment [7]. The GI50 in experiment [8] and in [9] was > 100 µM (inactive) throughout.
As to `COc1ccc(C2S/C(=C\c3ccccc3)C(=O)N2NC(=O)Cc2ccccc2)cc1` (stereo not drawn), the GI50 in experiment [4], in experiment [6], in experiment [7] and in experiment [9] was > 100 µM (inactive) each time.
Take `COC(=O)[C@H]1COC(=S)N1C(=O)[C@@H](C)[C@H](O)C(C)C`: the GI50 in experiment [1] was > 100 µM (inactive); in experiment [2], > 100 µM (inactive); in experiment [3], > 100 µM (inactive); in [4], > 100 µM (inactive); in [5] it was 84.7 µM (inactive); in experiment [6], > 100 µM (inactive). Further, the GI50 in experiment [7], in experiment [8] and in experiment [9] was > 100 µM (inactive) in each case.
For `O=C(CCc1nnc(S)[nH]1)Nc1cc(Cl)ccc1Cl`, the GI50 in [1], in [4], in experiment [5], in experiment [6], in experiment [7] and in experiment [8] was > 100 µM (inactive) each time. Further, the GI50 in experiment [9] is > 100 µM (inactive).
On to `COC(=O)C(C(=O)C(=O)Nc1ccc(N)cc1[N+](=O)[O-])c1nc2ccc(Cl)cc2nc1O` (stereo not drawn), for which the GI50 in experiment [2] was > 100 µM (inactive); in experiment [3], 70.8 µM (inactive); in experiment [4] it was > 100 µM (inactive); in [5], > 100 µM (inactive); in experiment [7], > 100 µM (inactive); in experiment [8], > 100 µM (inactive). For the same compound, in experiment [9], the GI50 is > 100 µM (inactive).
Regarding `C[C@]12CCc3nonc3C1CC[C@@H]1C2CC[C@]2(C)NC(=O)CCC12` (stereo partly drawn), the GI50 in [1], in [2], in experiment [3], in experiment [4], in experiment [6] and in experiment [8] was > 100 µM (inactive) throughout. In [9], the GI50 is > 100 µM (inactive).
As to `O=C(CC1Sc2ccccc2NC1=O)Nc1cc(Cl)ccc1Cl` (stereo not drawn), the GI50 in experiment [1], in experiment [2], in experiment [4], in experiment [5], in [6] and in [7] was > 100 µM (inactive) each time. Also, the GI50 in experiment [8] and in experiment [9] was > 100 µM (inactive) each time.
On to `COC(=O)C(c1n[nH]c2ccccc12)C(C(=O)OC)c1n[nH]c2ccccc12` (stereo not drawn), for which the GI50 in experiment [1] is > 100 µM (inactive); in experiment [2], 38.1 µM (inactive); in experiment [3], 41.8 µM (inactive); in experiment [4], > 100 µM (inactive); in experiment [5], 29.4 µM (inactive); in experiment [6], 26.2 µM (inactive). The GI50 is 36.3 µM (inactive) in experiment [7] and > 100 µM (inactive) in experiment [8].
In the case of `Nc1ccc(C(c2ccccc2)(c2ccccc2)c2ccccc2)cc1`, the GI50 was 47 µM (inactive) in [1]; 34.4 µM (inactive) in experiment [2]; 4.24 µM (inactive) in experiment [3]; 55.8 µM (inactive) in experiment [4]; 64 µM (inactive) in experiment [5]; 37.1 µM (inactive) in experiment [6]. The figures for the GI50 in [7] and in [9] were 95.9 µM (inactive) and 50.1 µM (inactive), respectively.
Consider `COc1ccc(C2C(Cl)C(=O)N2NC(=O)c2ccc(NC(C)=O)cc2)cc1` (stereo not drawn), for which the GI50 in [2], in experiment [3], in experiment [4], in [6], in experiment [7] and in experiment [8] was > 100 µM (inactive) throughout. Further, the GI50 in [9] is > 100 µM (inactive).
As for `Cc1c(C(=O)CC(=O)C(=O)Nc2ccc(Cl)cc2)[n+]([O-])c2ccccc2[n+]1[O-]`, the GI50 in experiment [2], in [3], in [4], in [5], in experiment [6] and in [7] was > 100 µM (inactive) throughout. The GI50 in experiment [8] and in experiment [9] was > 100 µM (inactive) throughout.
As to `ClCCNCCNCCCl.ClCCNCCNCCCl.[O-][Cl+3]([O-])([O-])O`, the GI50 was 44.6 µM (inactive) in experiment [2]; 27.2 µM (inactive) in [4]; 23.9 µM (inactive) in experiment [5]; 17.2 µM (inactive) in experiment [6]; 18.5 µM (inactive) in experiment [7]; 67.3 µM (inactive) in experiment [8]. Moreover, the GI50 in experiment [9] was 27.5 µM (inactive).
In the case of `COc1ccc2c(c1)CN1CCc3c(cc(OC)c(OC)c3OC)C1C2` (stereo not drawn), the GI50 in experiment [2] was > 100 µM (inactive); in experiment [3] it was 38.7 µM (inactive); in experiment [4] it was > 100 µM (inactive); in experiment [5] it was 58.5 µM (inactive); in experiment [6], 39.4 µM (inactive); in experiment [7], > 100 µM (inactive). Moreover, the GI50 in [8] and in experiment [9] was > 100 µM (inactive) in each case.
With `Cc1nc(N)nc(N)c1-c1ccc(Cl)c(Cl)c1` [METOPRINE], the GI50 is 26.3 µM (inactive) in experiment [2]; 34.8 µM (inactive) in [3]; 2.36 µM (inactive) in [4]; 0.149 µM (active) in experiment [5]; 0.404 µM (active) in [6]; 0.427 µM (active) in experiment [7]. Further, the GI50 in experiment [8] is 0.94 µM (active); in experiment [9], 0.157 µM (active).
